Results taken from US12473304B2, “Heterocyclic PAD4 inhibitors” (BRISTOL-MYERS SQUIBB COMPANY, priority 2020, dated 2025).

What follows are compounds tested against human PAD4 (hPAD4) (Homo sapiens (Human), UniProt Q9UM07) (assay: RFMS Human PAD4 Functional Assay 1). Conditions: RFMS assay 1; 5 nM hPAD4, 250 μM BAEE substrate, 50 μM calcium, 37° C.
Format: biochemical
Summary of the method: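 Citrullination product read by RapidFire triple-quad MRM against a modified-citrulline internal standard, after TCA stop and 30 min phenyl glyoxal step at 37 °C. Reaction: 250 μM BAEE, 5 nM human PAD4, 90 min at 37 °C, pH 7.5 HEPES buffer with 50 μM calcium and 5 μM TPEN, following 30 min compound–enzyme preincubation (max 50 μM).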

human PAD4 (hPAD4), sequence (Q9UM07 whole entry): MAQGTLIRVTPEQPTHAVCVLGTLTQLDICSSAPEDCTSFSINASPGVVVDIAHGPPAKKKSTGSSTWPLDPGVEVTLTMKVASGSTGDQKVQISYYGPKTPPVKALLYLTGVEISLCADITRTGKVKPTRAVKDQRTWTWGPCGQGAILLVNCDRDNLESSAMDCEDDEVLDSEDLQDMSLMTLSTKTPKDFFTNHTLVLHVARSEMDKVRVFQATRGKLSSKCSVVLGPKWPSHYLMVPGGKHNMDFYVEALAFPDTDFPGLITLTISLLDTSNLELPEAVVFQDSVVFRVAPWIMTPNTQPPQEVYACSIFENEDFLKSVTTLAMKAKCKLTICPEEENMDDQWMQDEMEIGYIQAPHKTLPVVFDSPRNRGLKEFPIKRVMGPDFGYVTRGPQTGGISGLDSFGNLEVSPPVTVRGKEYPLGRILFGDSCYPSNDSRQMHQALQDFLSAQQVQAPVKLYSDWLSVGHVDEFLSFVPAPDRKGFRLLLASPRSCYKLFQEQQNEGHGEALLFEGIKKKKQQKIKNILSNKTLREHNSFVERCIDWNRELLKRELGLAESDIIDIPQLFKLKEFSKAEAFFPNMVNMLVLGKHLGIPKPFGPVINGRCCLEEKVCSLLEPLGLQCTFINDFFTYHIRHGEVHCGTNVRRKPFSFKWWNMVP

IC50 [nM]	Structure (SMILES)
40	Cc1c(-c2cc3ccc(C(C)(O)C(F)(F)F)nc3n2CC2CC2)nn2cc(C(=O)N3CC4CCC3[C@@H]4N)cc(F)c12 (stereo partly drawn) [Example 383, 2-(2-{6-[(7R)-7-Amino-2-azabicyclo[2.2.1]heptane-2-carbonyl]-4-fluoro-3-methylpyrazolo[1,5-a]pyridin-2-yl}-1-(cyclopropylmethyl)-1H-pyrrolo[2,3-b]pyridin-6-yl)-1,1,1-trifluoropropan-2-ol]
200	Cc1c(-c2cc3ccc(C(C)(O)C4CC4)nc3n2CC2CC2)nn2cc(C(=O)N3CC4CCC3[C@@H]4N)cc(F)c12 (stereo partly drawn) [Example 384, 1-(2-{6-[(7R)-7-Amino-2-azabicyclo[2.2.1]heptane-2-carbonyl]-4-fluoro-3-methylpyrazolo[1,5-a]pyridin-2-yl}-1-(cyclopropylmethyl)-1H-pyrrolo[2,3-b]pyridin-6-yl)-1-cyclopropylethan-1-ol]
10	COc1cc(C(=O)N2C[C@H](N)C[C@@H](F)C2)cn2nc(-c3cc4cccc(C5CCN(C(=O)[C@H]6CC[C@H](O)CC6)CC5)c4n3CC3CC3)c(C)c12 [Example 391, ((3R,5R)-3-Amino-5-fluoropiperidin-1-yl)(2-(1-(cyclopropylmethyl)-7-(1-((1r,4r)-4-hydroxycyclohexane-1-carbonyl)piperidin-4-yl)-1H-indol-2-yl)-4-methoxy-3-methylpyrazolo[1,5-a]pyridin-6-yl)methanone]
140	COc1cc(C(=O)N2C[C@H](N)C[C@@H](F)C2)cn2nc(-c3cc4cccc(C5CCN(C(=O)[C@@H](C)OC)CC5)c4n3CC3CC3)c(C)c12 [Example 395, (R)-1-(4-(2-(6-((3R,5R)-3-Amino-5-fluoropiperidine-1-carbonyl)-4-methoxy-3-methylpyrazolo[1,5-a]pyridin-2-yl)-1-(cyclopropylmethyl)-1H-indol-7-yl)piperidin-1-yl)-2-methoxypropan-1-one]
20	COCC(=O)N1CCC(c2cccc3cc(-c4nn5cc(C(=O)N6CCC[C@@H](N)C6)cc(OC)c5c4C)n(CC4CC4)c23)CC1 [Example 401, (R)-1-(4-(2-(6-(3-Aminopiperidine-1-carbonyl)-4-methoxy-3-methylpyrazolo[1,5-a]pyridin-2-yl)-1-(cyclopropylmethyl)-1H-indol-7-yl)piperidin-1-yl)-2-methoxyethan-1-one]
60	COc1cc(C(=O)N2CCC[C@@H](N)C2)cn2nc(-c3cc4cccc(C5CCN(C(=O)[C@@H](C)OC)CC5)c4n3CC3CC3)c(C)c12 [Example 402, (R)-1-(4-(2-(6-((R)-3-Aminopiperidine-1-carbonyl)-4-methoxy-3-methylpyrazolo[1,5-a]pyridin-2-yl)-1-(cyclopropylmethyl)-1H-indol-7-yl)piperidin-1-yl)-2-methoxypropan-1-one]
460	COc1cc(C(=O)N2CCC[C@@H](N)C2)cn2nc(-c3cc4cccc(C5CCN(C(=O)[C@H](C)OC)CC5)c4n3CC3CC3)c(C)c12 [Example 403, (S)-1-(4-(2-(6-((R)-3-Aminopiperidine-1-carbonyl)-4-methoxy-3-methylpyrazolo[1,5-a]pyridin-2-yl)-1-(cyclopropylmethyl)-1H-indol-7-yl)piperidin-1-yl)-2-methoxypropan-1-one]
30	COc1cc(C(=O)N2C[C@H](N)C[C@@H](F)C2)cn2nc(-c3cc4cccc(C5CCN(C(=O)[C@H](C)OC)CC5)c4n3CC3CC3)c(C)c12 [Example 404, (S)-1-(4-(2-(6-((3R,5R)-3-Amino-5-fluoropiperidine-1-carbonyl)-4-methoxy-3-methylpyrazolo[1,5-a]pyridin-2-yl)-1-(cyclopropylmethyl)-1H-indol-7-yl)piperidin-1-yl)-2-methoxypropan-1-one]
20	COCC(=O)N1CCC(c2cccc3cc(-c4nn5cc(C(=O)N6C[C@H](N)C[C@@H](F)C6)cc(OC)c5c4C)n(CC4CC4)c23)CC1 [Example 405, 1-(4-(2-(6-((3R,5R)-3-Amino-5-fluoropiperidine-1-carbonyl)-4-methoxy-3-methylpyrazolo[1,5-a]pyridin-2-yl)-1-(cyclopropylmethyl)-1H-indol-7-yl)piperidin-1-yl)-2-methoxyethan-1-one]
90	COc1cc(C(=O)N2CCC[C@@H](N)C2)cn2nc(-c3cc4cccc(C5CCN(C(=O)[C@H]6CC[C@@H](O)CC6)CC5)c4n3CC3CC3)c(C)c12 [Example 406, ((R)-3-Aminopiperidin-1-yl)(2-(1-(cyclopropylmethyl)-7-(1-((1s,4s)-4-hydroxycyclohexane-1-carbonyl)piperidin-4-yl)-1H-indol-2-yl)-4-methoxy-3-methylpyrazolo[1,5-a]pyridin-6-yl)methanone]
30	COc1cc(C(=O)N2C[C@H](N)C[C@@H](F)C2)cn2nc(-c3cc4cccc(C5CCN(C(=O)[C@H]6CC[C@@H](O)CC6)CC5)c4n3CC3CC3)c(C)c12 [Example 407, ((3R,5R)-3-Amino-5-fluoropiperidin-1-yl)(2-(1-(cyclopropylmethyl)-7-(1-((1s,4s)-4-hydroxycyclohexane-1-carbonyl)piperidin-4-yl)-1H-indol-2-yl)-4-methoxy-3-methylpyrazolo[1,5-a]pyridin-6-yl)methanone]
40	COc1cc(C(=O)N2CCC[C@@H](N)C2)cn2nc(-c3cc4cccc(C5CCN(C(=O)[C@H]6CC[C@H](O)CC6)CC5)c4n3CC3CC3)c(C)c12 [Example 408, ((R)-3-Aminopiperidin-1-yl)(2-(1-(cyclopropylmethyl)-7-(1-((1r,4r)-4-hydroxycyclohexane-1-carbonyl)piperidin-4-yl)-1H-indol-2-yl)-4-methoxy-3-methylpyrazolo[1,5-a]pyridin-6-yl)methanone]
40	COc1cc(C(=O)N2C[C@H](N)C[C@@H](F)C2)cn2nc(-c3cc4cccc(C5CCN(C(=O)[C@H]6CC[C@H](O)CC6)CC5)c4n3CC3CC3)c(C)c12 [Example 409, ((3R,5R)-3-Amino-5-fluoropiperidin-1-yl)(2-(1-(cyclopropylmethyl)-7-(1-((1r,4r)-4-hydroxycyclohexane-1-carbonyl)piperidin-4-yl)-1H-indol-2-yl)-4-methoxy-3-methylpyrazolo[1,5-a]pyridin-6-yl)methanone]
90	COc1cc(C(=O)N2CCC[C@@H](N)C2)cn2nc(-c3cc4cccc(C5CCN(C(C)=O)CC5)c4n3CC3CC3)c(C)c12 [Example 410, (R)-1-(4-(2-(6-(3-Aminopiperidine-1-carbonyl)-4-methoxy-3-methylpyrazolo[1,5-a]pyridin-2-yl)-1-(cyclopropylmethyl)-1H-indol-7-yl)piperidin-1-yl)ethan-1-one]
110	COc1cc(C(=O)N2C[C@H](N)C[C@@H](F)C2)cn2nc(-c3cc4cccc(C5CCN(C(C)=O)CC5)c4n3CC3CC3)c(C)c12 [Example 411, 1-(4-(2-(6-((3R,5R)-3-Amino-5-fluoropiperidine-1-carbonyl)-4-methoxy-3-methylpyrazolo[1,5-a]pyridin-2-yl)-1-(cyclopropylmethyl)-1H-indol-7-yl)piperidin-1-yl)ethan-1-one]
10	COc1cc(C(=O)N2CC3CCC2[C@@H]3N)cn2nc(-c3cc4cccc(C5CCN(C(C)=O)CC5)c4n3CC3CC3)c(C)c12 (stereo partly drawn) [Example 412, 1-(4-(2-(6-((7R)-7-Amino-2-azabicyclo[2.2.1]heptane-2-carbonyl)-4-methoxy-3-methylpyrazolo[1,5-a]pyridin-2-yl)-1-(cyclopropylmethyl)-1H-indol-7-yl)piperidin-1-yl)ethan-1-one]
30	CC(=O)N1CCC(c2cccc3cc(-c4nn5cc(C(=O)N6CCC[C@@H](N)C6)cc(F)c5c4C)n(CC4CC4)c23)CC1 [Example 413, (R)-1-(4-(2-(6-(3-Aminopiperidine-1-carbonyl)-4-fluoro-3-methylpyrazolo[1,5-a]pyridin-2-yl)-1-(cyclopropylmethyl)-1H-indol-7-yl)piperidin-1-yl)ethan-1-one]
260	Cc1c(-c2cc3cccc(C4CCN(C(=O)[C@H]5CC[C@H](O)CC5)CC4)c3n2CC2CC2)nn2cc(C(=O)N3C[C@H](N)C[C@@H](F)C3)cc(F)c12 [Example 414, ((3R,5R)-3-Amino-5-fluoropiperidin-1-yl)(2-(1-(cyclopropylmethyl)-7-(1-((1r,4r)-4-hydroxycyclohexane-1-carbonyl)piperidin-4-yl)-1H-indol-2-yl)-4-fluoro-3-methylpyrazolo[1,5-a]pyridin-6-yl)methanone]
460	Cc1c(-c2cc3cccc(C4CCN(C(=O)[C@H]5CC[C@H](O)CC5)CC4)c3n2CC2CC2)nn2cc(C(=O)N3CCC[C@@H](N)C3)cc(F)c12 [Example 415, ((R)-3-Aminopiperidin-1-yl)(2-(1-(cyclopropylmethyl)-7-(1-((1r,4r)-4-hydroxycyclohexane-1-carbonyl)piperidin-4-yl)-1H-indol-2-yl)-4-fluoro-3-methylpyrazolo[1,5-a]pyridin-6-yl)methanone]
560	Cc1c(-c2cc3cccc(C4CCN(C(=O)[C@H]5CC[C@@H](O)CC5)CC4)c3n2CC2CC2)nn2cc(C(=O)N3C[C@H](N)C[C@@H](F)C3)cc(F)c12 [Example 416, ((3R,5R)-3-Amino-5-fluoropiperidin-1-yl)(2-(1-(cyclopropylmethyl)-7-(1-((1s,4s)-4-hydroxycyclohexane-1-carbonyl)piperidin-4-yl)-1H-indol-2-yl)-4-fluoro-3-methylpyrazolo[1,5-a]pyridin-6-yl)methanone]
5060	COC(C)(C)C(=O)N1CCC(c2cccc3cc(-c4nn5cc(C(=O)N6C[C@H](N)C[C@@H](F)C6)cc(F)c5c4C)n(CC4CC4)c23)CC1 [Example 417, 1-(4-(2-(6-((3R,5R)-3-Amino-5-fluoropiperidin-1-carbonyl)-4-fluoro-3-methylpyrazolo[1,5-a]pyridin-2-yl)-1-(cyclopropylmethyl)-1H-indol-7-yl)piperidin-1-yl)-2-methoxy-2-methylpropan-1-one]
